TGI data for 13 molecules are collected here from PubChem BioAssay (NCI).

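Cells were grown in 96-well plates and exposed to each compound for 48 hours at five concentrations; endpoints were interpolated linearly between bracketing concentrations, or set to the highest concentration if not reached. The concentration for full growth arrest is given as TGI.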

Test systems include DU-145 prostate; SN12C renal; T-47D breast; HL-60(TB) leukemia; HT29 colon; EKVX NSCLC; CAKI-1 renal; NCI/ADR-RES ovarian; MOLT-4 leukemia; MALME-3M melanoma; RXF 393 renal.
Holding throughout (assay): inhibition of tumour cell growth, NCI panel, 48 h

As to `Cc1ccc(C(=O)NN=C(/N=N/c2cccc(C)c2)c2ccc(N(C)C)cc2)cc1`, the TGI in the test on DU-145 prostate, in the test with SN12C renal, in the test with T-47D breast, in the test on HL-60(TB) leukemia, in the test with HT29 colon and with EKVX NSCLC was above 100 µM in each case. In addition, the TGI in the test on CAKI-1 renal, with NCI/ADR-RES ovarian and in the test with MOLT-4 leukemia was above 100 µM in each case.
With `CC1Cc2c(cc(N)nc2Br)NC1=O` (stereo not given), the TGI in the test with DU-145 prostate, in the test with MALME-3M melanoma, in the test with SN12C renal, with T-47D breast, in the test on HT29 colon and with EKVX NSCLC was above 100 µM in each case. Further, the TGI in the test on CAKI-1 renal, in the test with RXF 393 renal, in the test on NCI/ADR-RES ovarian and with MOLT-4 leukemia was above 100 µM each time.
`Cc1cc(C)c(C#N)c(SC(=S)NC(=O)c2ccccc2)n1`: the TGI in the test on DU-145 prostate, with MALME-3M melanoma, in the test on SN12C renal, with T-47D breast, in the test on HT29 colon and in the test on EKVX NSCLC was above 100 µM in each case. Also, the TGI in the test with CAKI-1 renal, with RXF 393 renal, in the test on NCI/ADR-RES ovarian and with MOLT-4 leukemia was above 100 µM throughout.
For the molecule `O=C(c1ccccc1)c1ccc2nc(-c3c(Cl)c(Cl)c(Cl)c(Cl)c3C(=O)Nc3ccco3)[nH]c2c1`, the TGI was above 100 µM in the test with DU-145 prostate; above 100 µM in the test with SN12C renal; above 100 µM in the test with T-47D breast; 98.3 µM with HL-60(TB) leukemia; above 100 µM with HT29 colon; above 100 µM in the test with EKVX NSCLC. Besides, the TGI with CAKI-1 renal is above 100 µM; in the test with RXF 393 renal, above 100 µM; in the test on NCI/ADR-RES ovarian it was 62.4 µM; in the test on MOLT-4 leukemia it was above 100 µM.
Regarding `C/C=C\C(CC(=O)NCCc1c[nH]c2ccccc12)CC(=O)OC` (stereo not given), the TGI in the test on DU-145 prostate, in the test with MALME-3M melanoma, with T-47D breast, with HT29 colon, in the test with EKVX NSCLC and in the test on CAKI-1 renal was above 100 µM in each case. For the same molecule, the TGI with RXF 393 renal, in the test on NCI/ADR-RES ovarian and in the test with MOLT-4 leukemia was above 100 µM in each case.
For `OCC1c2ccccc2-n2nc(-c3ccccc3)c(O)c21` (stereo not given), the TGI in the test on DU-145 prostate is above 100 µM; in the test with MALME-3M melanoma it was 33.3 µM; in the test with SN12C renal, 36.8 µM; in the test on T-47D breast, above 100 µM; in the test on HT29 colon, 76.4 µM; in the test with EKVX NSCLC, above 100 µM. For the same molecule, the TGI with CAKI-1 renal was 31.7 µM; in the test on RXF 393 renal, 31.9 µM; with NCI/ADR-RES ovarian it was 51.1 µM; in the test with MOLT-4 leukemia it was above 100 µM.
As to `C=C1CC(Cn2cc(Br)c(=O)[nH]c2=O)(c2ccc(Br)cc2)OC1=O` (stereo not given), the TGI in the test on DU-145 prostate turned out to be 15.5 µM; in the test on MALME-3M melanoma, 4.7 µM; with SN12C renal it was 20.8 µM; in the test on T-47D breast, 5.04 µM; with HL-60(TB) leukemia it was 2.74 µM; in the test on HT29 colon, 7.89 µM. Besides, the TGI in the test with EKVX NSCLC was 39.7 µM; with CAKI-1 renal, 7.13 µM; with NCI/ADR-RES ovarian, 15.9 µM; with MOLT-4 leukemia, 6.13 µM.
For `O=C1/C(=C/c2cccs2)N=C(c2ccccc2)N1c1nc2ccccc2s1`, the TGI with DU-145 prostate, in the test on SN12C renal, in the test with T-47D breast, in the test with HL-60(TB) leukemia, in the test with HT29 colon and in the test with EKVX NSCLC was above 100 µM throughout. Besides, the TGI in the test on CAKI-1 renal is above 100 µM; with RXF 393 renal, 90.7 µM; in the test with NCI/ADR-RES ovarian, above 100 µM; in the test with MOLT-4 leukemia, above 100 µM.
On to `Cn1c(O)c(/C=N/c2ncccn2)c(=O)[nH]c1=O`, for which the TGI in the test with DU-145 prostate, in the test with MALME-3M melanoma, in the test with SN12C renal, with T-47D breast, with HL-60(TB) leukemia and in the test with HT29 colon was above 100 µM each time. Besides, the TGI in the test on EKVX NSCLC, with CAKI-1 renal, in the test on NCI/ADR-RES ovarian and with MOLT-4 leukemia was above 100 µM each time.
Turning to `COc1c(-c2ccc(F)cc2)oc2cc(O)cc(O)c2c1=O`, the TGI with DU-145 prostate was 96.5 µM; with MALME-3M melanoma, 61.1 µM; in the test with SN12C renal it was 83.6 µM; with T-47D breast, 56.9 µM; in the test with HL-60(TB) leukemia, 70.1 µM; in the test on HT29 colon it was 44.6 µM. Further, the TGI in the test with EKVX NSCLC was 45.5 µM; in the test with CAKI-1 renal, 48.5 µM; with NCI/ADR-RES ovarian it was 63.5 µM; in the test with MOLT-4 leukemia it was above 100 µM.
`Cc1ccc(S(=O)(=O)CC2CCCn3c2c(C#N)c2ccccc23)cc1` (stereo not given): the TGI in the test on DU-145 prostate, in the test on SN12C renal, in the test on T-47D breast, with HT29 colon, with EKVX NSCLC and in the test with CAKI-1 renal was above 100 µM in each case. In addition, the TGI in the test on RXF 393 renal, in the test with NCI/ADR-RES ovarian and with MOLT-4 leukemia was above 100 µM in each case.
As to `CCn1c(SCc2nnc(Nc3ccccc3)s2)nc2ccccc2c1=O`, the TGI in the test with DU-145 prostate was 36.5 µM; in the test on MALME-3M melanoma, 14 µM; in the test on SN12C renal it was 18.2 µM; in the test with T-47D breast it was 27 µM; in the test with HT29 colon it was 12.5 µM; in the test on EKVX NSCLC, 17.3 µM. The TGI with CAKI-1 renal was 9.04 µM; in the test on RXF 393 renal, 19.1 µM; with NCI/ADR-RES ovarian, 10.9 µM; in the test with MOLT-4 leukemia, above 100 µM.
Turning to `CC(C)(C)C(=O)O[C@H]1C=C[C@@H](O)[C@@H]2[C@H]1[C@@H]1C=C[C@H]2C1`, the TGI in the test with DU-145 prostate is above 100 µM; in the test on SN12C renal, 41 µM; in the test on T-47D breast, above 100 µM; in the test with HL-60(TB) leukemia it was 33.8 µM; in the test with EKVX NSCLC, above 100 µM; with CAKI-1 renal it was above 100 µM. In addition, the results for the TGI with NCI/ADR-RES ovarian and in the test on MOLT-4 leukemia were 96.1 µM and 83.8 µM, respectively.
